Data on two molecules can be found in US20070105939A1, “Mesylate salt of 5-(2-dimethylaminoethoxy)-1H-indole-2-carboxylic acid [3-(4-hydroxycarbamoylphenyl)prop-2-ynyl]amide” (Pharmacyclics, Inc., priority 2005, published 2007).

Read-outs that look alike come from different tables or passages of the source.

For series [1] the following is noted: in vivo.
The test system of series [2] is histone deacetylase enzyme H1. To be noted: disclosed in PCT publication WO 2004/019174; cited from earlier work.
The nature of series [3]: Solubility (background statement).
Series [4] is described as follows: Oral bioavailability (background statement). The conditions noted are these: have to be administered parenterally for therapeutic effect.

For `CN(C)CCOc1ccc2[nH]c(C(=O)NCC#Cc3ccc(C(=O)NO)cc3)cc2c1` [5-(2-dimethylaminoethoxy)-1H-indole-2-carboxylic acid [3-(4-hydroxy-carbamoylphenyl)prop-2-ynyl]amide], the oral bioavailability entry in series [1] is given as “poor”. For the same molecule, the “inhibition of histone deacetylase enzyme H1” value in series [2] is listed as “inhibitors”.

In the case of `CN(C)CCOc1ccc2[nH]c(C(=O)NCC#Cc3ccc(C(=O)NO)cc3)cc2c1.Cl` [hydrochloride salt, 5-(2-dimethylaminoethoxy)-1H-indole-2-carboxylic acid [3-(4-hydroxy-carbamoylphenyl)prop-2-ynyl]amide hydrochloride], the solubility entry in series [3] was “poor”. In addition, the oral bioavailability entry in series [4] was “poor”. Further, the “inhibition of histone deacetylase enzyme H1” value in series [2] is reported as “inhibitors”.
